Columns and labels:
[1] = tested on: steroid-resistant leukemia cells; experiment: Steroid-resistant leukemia cells: cell killing and NOTCH levels; assay type: cell-based; conditions: GSI alone: 1 nM PF-3084014 or 25 nM BMS-906024
[2] = tested on: bone marrow-derived MDSCs; experiment: Bone marrow-derived MDSC differentiation in vitro: viability and CD11b/Gr1 phenotype by FACS; conditions: 1 μM
[3] = tested on: ARG-1, iNOS, COX2; experiment: Immunoblot of ARG-1, iNOS, COX2 and related factors in bone marrow-derived MDSCs; assay type: cell-based, mouse; conditions: day 2 to day 4 of differentiation
From the text: (I) Positive control for PARP-1 trapping.
Cell fractionation, protein extraction and immunoblot analysis—Tumor tissues or cells were harvested and homogenized in RIPA lysis buffer (Santa Cruz Biotechnology) containing a cocktail of protease and phosphatase inhibitors on ice. Nuclear fractions were isolated as described (35) and the remaining chromatin pellets were washed then suspended in an isotonic buffer followed by sonication. […] Protein expression signals developed by ECL (Pierce, ThermoFisher Scientific) were determined by a G:Box Gel Image Analysis System (Syngene, Cambridge, UK) equipped with the GeneSys image capture software.

[4] = 20-30 μM; cited from earlier work
[5] = in vivo; cited from earlier work
[6] = tested on: trinitrobenzene sulfonic acid-induced colitis; conditions: in vivo; cited from earlier work

CN1C(=O)[C@@H](NC(=O)[C@H](CCC(F)(F)F)[C@H](CCC(F)(F)F)C(N)=O)N=C(c2ccccc2)c2ccccc21 [BMS-906024]
NOTCH1 levels or cell proliferation of leukemia cells [1]: do not have major effects

CNCc1ccc(-c2[nH]c3cc(F)cc4c3c2CCNC4=O)cc1 [rucaparib]
MDSC population (CD11b+/Gr1+) at day 4 [2]: appears to increase MDSC population
expression of Arg1 in BM-MDSCs ([3]; 4 nM): blocked expression of Arg1

O=c1[nH]c2sccc2c2ccccc12 [TIQ-A]
cytotoxicity [4]: cytotoxic

NC(=O)c1cccc2cn(-c3ccc([C@@H]4CCCNC4)cc3)nc12 [niraparib]
expression of Arg1 in BM-MDSCs ([3]; 4 nM): blocked expression of Arg1

C[C@]1(c2nc3c(C(N)=O)cccc3[nH]2)CCCN1 [velaparib]
expression of Arg1 in BM-MDSCs ([3]; 4 nM): blocked expression of Arg1

CCC[C@H](N[C@H]1CCc2cc(F)cc(F)c2C1)C(=O)Nc1cn(C(C)(C)CNCC(C)(C)C)cn1 [PF-3084014]
NOTCH1 levels or cell proliferation of leukemia cells [1]: do not have major effects

Cn1ncnc1[C@H]1c2n[nH]c(=O)c3cc(F)cc(c23)N[C@@H]1c1ccc(F)cc1 [talazoparib]
maximum tolerated dose [5]: 1 mg/day
expression of Arg1 in BM-MDSCs ([3]; 0.4 nM): blocked expression of Arg1

NC(=O)c1cccc(N)c1 [3-aminobenzamide]
colitis [6]: protection
